Results as given in patent publication US8691799B2, “Materials and methods for treatment of cancer and identification of anti-cancer compounds” (priority 2001, dated 2014).

What was measured:
phosphotyrosine Src = test: Western blotting for phosphotyrosine Src; format: cell-based, human; conditions: A549 and MDA-MB-468 cells, various concentrations, 4 hr
Method: (§1) Western Blotting. Treated cell samples were lysed in 30 mM Hepes, pH 7.5, 10 mM NaCl, 5 mM MgCl2, 25 mM NaF, 1 mM EGTA, 1% Triton-X-100, 10% glycerol, 2 mM sodium orthovanadate, 10 μg/ml aprotinin, 10 μg/ml soybean trypsin inhibitor, 25 μg/ml leupeptin, 2 mM PMSF, and 6.4 mg/ml p-nitrophenylphosphate. Phospho-STAT3, phospho-AKT, phospho-MEK, and phospho-p42/p44 MAPK antibodies were obtained from Cell Signaling Technologies, Cambridge, Mass. Antibodies to STAT3, JAK2, and phospho-INK were purchased from Santa Cruz Biotechnology, Santa Cruz, Calif. Phospho-JAK2 antibody came from Upstate Biotechnology, Lake Placid, N.Y. Membranes were blocked in either 5% milk in PBS, pH 7.4, containing 0.1% Tween-20 (PBS-T) or 1% BSA in TBS, pH 7.5, containing 0.1% Tween-20 (TBS-T). Phospho-specific antibodies (excepting P-MAPK and P-JNK) were incubated in 1% BSA in TBS-T while all other antibodies were diluted in 5% milk in PBS-T for either 2 hr at room temperature or overnight at 4° C. HRP-conjugated secondary antibodies (Jackson ImmunoResearch) were diluted in 5% milk in either PBS-T or TBS-T at 1:1000 dilution for one hour at room temperature. Western blots were visualized using enhanced chemiluminescence as described previously (Blaskovich, M. A. et al. Nat. Biotechnol., 2000, 18:1065-1070).

EGFR = target: T1, EGFR (Homo sapiens, UniProt P00533); test: EGF-stimulation of EGFR tyrosine phosphorylation; format: cell-based; conditions: MCF-10A and EGFR-overexpressing NIH 3T3 cells (data not shown)
T1 construct: EGFR tyrosine phosphorylation in the breast cell line MCF-10A; endogenous in cells; host or cells: MCF-10A; also EGFR-overexpressing NIH 3T3
T1 sequence (P00533 25-1210): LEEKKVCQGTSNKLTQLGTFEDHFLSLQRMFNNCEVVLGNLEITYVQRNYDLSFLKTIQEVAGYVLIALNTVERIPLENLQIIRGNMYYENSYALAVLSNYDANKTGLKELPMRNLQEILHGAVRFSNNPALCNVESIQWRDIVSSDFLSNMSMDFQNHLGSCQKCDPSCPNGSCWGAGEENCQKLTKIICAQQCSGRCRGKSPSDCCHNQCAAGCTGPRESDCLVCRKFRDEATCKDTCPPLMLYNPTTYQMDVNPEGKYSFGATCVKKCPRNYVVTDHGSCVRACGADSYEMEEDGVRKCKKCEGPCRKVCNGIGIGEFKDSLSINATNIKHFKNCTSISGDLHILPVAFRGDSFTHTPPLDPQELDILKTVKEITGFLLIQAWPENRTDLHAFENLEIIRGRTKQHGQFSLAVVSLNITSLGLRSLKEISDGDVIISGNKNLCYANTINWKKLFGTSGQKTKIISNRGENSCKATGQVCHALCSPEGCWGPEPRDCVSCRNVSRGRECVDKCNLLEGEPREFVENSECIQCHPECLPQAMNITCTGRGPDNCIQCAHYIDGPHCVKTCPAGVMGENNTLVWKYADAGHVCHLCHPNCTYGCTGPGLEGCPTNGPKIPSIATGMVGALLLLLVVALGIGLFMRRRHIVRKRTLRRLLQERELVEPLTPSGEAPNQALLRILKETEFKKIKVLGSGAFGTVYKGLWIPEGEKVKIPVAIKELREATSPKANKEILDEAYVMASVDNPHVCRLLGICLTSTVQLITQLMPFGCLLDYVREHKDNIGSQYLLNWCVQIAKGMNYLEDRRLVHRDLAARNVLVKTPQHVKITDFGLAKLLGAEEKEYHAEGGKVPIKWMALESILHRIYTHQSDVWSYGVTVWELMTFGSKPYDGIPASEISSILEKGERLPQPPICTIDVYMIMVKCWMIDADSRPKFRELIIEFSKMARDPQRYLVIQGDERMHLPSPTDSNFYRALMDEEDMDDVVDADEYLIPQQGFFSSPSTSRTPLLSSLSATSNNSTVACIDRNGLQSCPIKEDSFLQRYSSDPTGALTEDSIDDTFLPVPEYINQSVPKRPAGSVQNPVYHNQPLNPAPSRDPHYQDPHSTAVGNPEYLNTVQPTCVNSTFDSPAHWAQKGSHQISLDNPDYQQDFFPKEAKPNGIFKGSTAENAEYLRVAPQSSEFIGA

phospho-Akt = test: Western blotting for phospho-Akt; format: cell-based, human; conditions: A549 and MDA-MB-468 cells, up to 10 μM
Method: as §1

CC(C)(O)/C=C/C(=O)[C@](C)(O)[C@H]1[C@H](O)C[C@@]2(C)[C@@H]3CC=C4[C@@H](C=C(O)C(=O)C4(C)C)[C@]3(C)C(=O)C[C@]12C [JSI-124, cucurbitacin I]
levels of tyrosine phosphorylated Src (phosphotyrosine Src): not those of tyrosine phosphorylated Src | EGF-stimulated EGFR tyrosine phosphorylation (EGFR): inhibited only minimally | phospho-Akt levels (phospho-Akt): no inhibitory effect
